Our source for the GI50 and TGI values is PubChem BioAssay (NCI).

Among the test systems are ACHN renal; HCC-2998 colon; K-562 leukemia; NCI-H522 lung; OVCAR-3 ovarian; RPMI-8226 leukemia; SK-MEL-28 melanoma; SK-OV-3 ovarian; SR leukemia; TK-10 renal.
Holding throughout (experiment): DTP human tumour cell line panel, 48 h

SMILES strings stand for the structures. Several values for one entry are separate records, joined by “and”; a condition that tells them apart may be missing. Equal values may be shown once.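 Results reflect a 48-hour exposure of cells in 96-well plates to compound at five concentrations. GI50 = concentration required for 50% inhibition of growth. TGI marks complete inhibition of growth.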

As a reminder, the GI50 is the concentration that inhibits growth by half. Broadly, the TGI is the concentration at which net growth stops. `O=C(CN1CCN(c2ncccn2)CC1)Nc1ccc(Cl)cc1C(=O)c1ccccc1Cl`: the GI50 in the assay with ACHN renal is greater than 100 µM; with HCC-2998 colon, greater than 100000 nM; with K-562 leukemia, 32000 nM; in the assay on NCI-H522 lung it was 46.6 µM; in the assay on OVCAR-3 ovarian, greater than 100000 nM; in the assay on RPMI-8226 leukemia, 9510 nM. The GI50 with SK-MEL-28 melanoma was greater than 100000 nM; in the assay on SK-OV-3 ovarian, greater than 100000 nM; in the assay on SR leukemia, 67800 nM; in the assay on TK-10 renal, greater than 100000 nM. The TGI with ACHN renal, with HCC-2998 colon, in the assay on K-562 leukemia, in the assay with NCI-H522 lung, in the assay with OVCAR-3 ovarian and in the assay with RPMI-8226 leukemia was greater than 100 µM in each case. The TGI in the assay with SK-MEL-28 melanoma, in the assay on SK-OV-3 ovarian, in the assay with SR leukemia and with TK-10 renal was greater than 100 µM in each case.
Turning to `CCc1cccc(C(C)C)c1NC(=O)C(=O)C(Cc1nc2ccccc2[nH]c1=O)C(=O)OC` (stereo unspecified), the TGI in the assay with ACHN renal, in the assay on HCC-2998 colon, in the assay on K-562 leukemia, in the assay with NCI-H522 lung, with OVCAR-3 ovarian and in the assay with RPMI-8226 leukemia was greater than 100 µM each time. Besides, the TGI in the assay on SK-MEL-28 melanoma, in the assay with SK-OV-3 ovarian, in the assay on SR leukemia and with TK-10 renal was greater than 100 µM in each case.
For the compound `O=P(O)(CCP(=O)(O)c1ccccc1)c1ccccc1`, the TGI with ACHN renal, in the assay with HCC-2998 colon, in the assay with K-562 leukemia, with NCI-H522 lung, in the assay on OVCAR-3 ovarian and with RPMI-8226 leukemia was greater than 100 µM each time. For the same compound, the TGI in the assay with SK-MEL-28 melanoma, in the assay on SK-OV-3 ovarian, in the assay on SR leukemia and in the assay on TK-10 renal was greater than 100 µM in each case.
With `CCOc1cc2ncc(C#N)c(Nc3ccc(OCc4cccc(F)c4)c(Cl)c3)c2cc1NC(=O)CC1CCSS1` (stereo unspecified), the GI50 in the assay on ACHN renal was 3.1 µM; with HCC-2998 colon, 484 nM; in the assay with K-562 leukemia, 902 nM; in the assay on NCI-H522 lung, greater than 6.9 µM; with OVCAR-3 ovarian, 1090 nM; with RPMI-8226 leukemia it was greater than 25000 nM. The GI50 in the assay with SK-MEL-28 melanoma was 1200 nM; with SK-OV-3 ovarian, 476 nM; in the assay with SR leukemia, 680 nM; with TK-10 renal, 916 nM. In addition, the TGI in the assay with ACHN renal is greater than 25 µM; in the assay on HCC-2998 colon, 0.974 µM; with K-562 leukemia, greater than 25 µM; in the assay with NCI-H522 lung, greater than 25 µM; in the assay on OVCAR-3 ovarian it was 9.3 µM; with RPMI-8226 leukemia, greater than 25 µM. Further, the TGI in the assay with SK-MEL-28 melanoma is greater than 19.3 µM; in the assay on SK-OV-3 ovarian, 0.905 µM; in the assay with SR leukemia, greater than 25 µM; with TK-10 renal, 6 µM.
On to `O=[N+]([O-])C1C(c2ccccc2)C12c1ccccc1-c1ccccc12` (stereo unspecified), for which the GI50 was 1.47 µM with ACHN renal; 1490 nM in the assay with HCC-2998 colon; 452 nM with K-562 leukemia; 0.68 µM in the assay with NCI-H522 lung; 783 nM in the assay on OVCAR-3 ovarian; 322 nM in the assay on RPMI-8226 leukemia. The GI50 was 4180 nM with SK-MEL-28 melanoma, 1840 nM in the assay with SK-OV-3 ovarian, 348 nM with SR leukemia and 2000 nM in the assay with TK-10 renal. The TGI in the assay with ACHN renal was 19.1 µM; with HCC-2998 colon, 6.43 µM; with K-562 leukemia, greater than 65.9 µM; with NCI-H522 lung it was 13 µM; with OVCAR-3 ovarian it was 3.59 µM; in the assay on RPMI-8226 leukemia, 1.51 µM. Besides, the TGI in the assay with SK-MEL-28 melanoma was 22.5 µM; in the assay with SK-OV-3 ovarian, greater than 41.1 µM; in the assay with SR leukemia it was 4.22 µM; in the assay on TK-10 renal it was 16.6 µM.
Turning to `Cc1ccc(OCC(=O)N2N=C(c3ccccc3)CC2(O)c2ccccc2)cc1` (stereo unspecified), the TGI in the assay with ACHN renal, in the assay on HCC-2998 colon, in the assay with K-562 leukemia, with NCI-H522 lung, with OVCAR-3 ovarian and in the assay with RPMI-8226 leukemia was greater than 100 µM each time. For the same compound, the TGI in the assay with SK-MEL-28 melanoma, in the assay with SK-OV-3 ovarian, in the assay with SR leukemia and with TK-10 renal was greater than 100 µM in each case.
In the case of `COc1ccc(C(=O)/C(Br)=C/C(=O)O)cc1`, the GI50 with ACHN renal is 78.8 µM; with HCC-2998 colon it was 26600 nM; with K-562 leukemia, 18800 nM; with NCI-H522 lung, 13.3 µM; with OVCAR-3 ovarian, 35600 nM and 22700 nM; with RPMI-8226 leukemia it was 7570 nM. Further, the figures for the GI50 in the assay with SR leukemia and in the assay on TK-10 renal were 19100 nM and 113000 nM, respectively. The TGI with ACHN renal is 293 µM and 235 µM; in the assay on HCC-2998 colon, 76.3 µM and 51.8 µM; with K-562 leukemia, 281 µM and 352 µM; in the assay with NCI-H522 lung it was 50.4 µM and 22.9 µM; in the assay on OVCAR-3 ovarian, 133 µM and 116 µM; with RPMI-8226 leukemia, 110 µM and 78.6 µM. In addition, the TGI with SK-MEL-28 melanoma was 89.1 µM and 89.4 µM; in the assay on SK-OV-3 ovarian, 358 µM and 299 µM; in the assay on SR leukemia, > 86 µM and 321 µM; in the assay on TK-10 renal, 167 µM and 285 µM.
Turning to `CNC(=O)c1cc(OC2CCC(NC(=O)Nc3ccc(Cl)c(C(F)(F)F)c3)CC2)ccn1` (stereo unspecified), the GI50 in the assay with ACHN renal was 7.76 µM; in the assay with HCC-2998 colon it was 7000 nM; with K-562 leukemia it was 3660 nM; in the assay on NCI-H522 lung it was 4.16 µM; in the assay with OVCAR-3 ovarian, 10700 nM; with RPMI-8226 leukemia, 2860 nM. For the same compound, the GI50 is 11400 nM with SK-MEL-28 melanoma, 18800 nM with SK-OV-3 ovarian, 4420 nM in the assay with SR leukemia and 18400 nM in the assay with TK-10 renal. In addition, the TGI came to 31.5 µM in the assay with ACHN renal; 19.2 µM with HCC-2998 colon; 17.3 µM in the assay with K-562 leukemia; 16.9 µM in the assay on NCI-H522 lung; 32 µM in the assay with OVCAR-3 ovarian; 14.8 µM in the assay with RPMI-8226 leukemia. Further, the TGI is 24.6 µM in the assay on SK-MEL-28 melanoma, 40.1 µM in the assay with SK-OV-3 ovarian, 32.7 µM with SR leukemia and 49.2 µM with TK-10 renal.
On to `CN1CC[C@@H](c2c(O)cc(O)c3c(=O)cc(-c4ccccc4Cl)oc23)[C@@H](O)C1`, for which the GI50 with ACHN renal was 0.0346 µM; in the assay on HCC-2998 colon, 137 nM and 41.7 nM; in the assay with K-562 leukemia it was 212 nM and 145 nM; in the assay with OVCAR-3 ovarian it was 63.6 nM and 37.5 nM and 25.6 nM; in the assay on RPMI-8226 leukemia it was 75.3 nM and 27.4 nM; in the assay on SK-MEL-28 melanoma, 101 nM and 90.2 nM. Besides, the GI50 in the assay on SK-OV-3 ovarian was 201 nM and 428 nM; in the assay with SR leukemia it was 14 nM; in the assay on TK-10 renal, 119 nM and 93.7 nM. Further, the TGI was 15.6 µM in the assay with ACHN renal; 0.312 µM and 0.162 µM in the assay on HCC-2998 colon; 0.222 µM and 0.319 µM with NCI-H522 lung; greater than 19.4 µM with OVCAR-3 ovarian; 0.233 µM and 1.36 µM with RPMI-8226 leukemia; 0.294 µM and 1.45 µM in the assay on SK-MEL-28 melanoma. The TGI was greater than 100 µM in the assay on SK-OV-3 ovarian; 0.0468 µM and 0.277 µM in the assay on SR leukemia; 34.8 µM in the assay with TK-10 renal.
